Assay results taken from paper PMC4955518 (Bioorganic & medicinal chemistry, 2016).
Structures can show the parent of a compound that is named as a salt. Where two headings read alike, the source gives them in different places.

Tests used:
human APJ = biological target: T1, human APJ (Homo sapiens, UniProt P35414); test: Calcium mobilization assay for APJ; type: cell-based
T1 sequence (P35414 1-380): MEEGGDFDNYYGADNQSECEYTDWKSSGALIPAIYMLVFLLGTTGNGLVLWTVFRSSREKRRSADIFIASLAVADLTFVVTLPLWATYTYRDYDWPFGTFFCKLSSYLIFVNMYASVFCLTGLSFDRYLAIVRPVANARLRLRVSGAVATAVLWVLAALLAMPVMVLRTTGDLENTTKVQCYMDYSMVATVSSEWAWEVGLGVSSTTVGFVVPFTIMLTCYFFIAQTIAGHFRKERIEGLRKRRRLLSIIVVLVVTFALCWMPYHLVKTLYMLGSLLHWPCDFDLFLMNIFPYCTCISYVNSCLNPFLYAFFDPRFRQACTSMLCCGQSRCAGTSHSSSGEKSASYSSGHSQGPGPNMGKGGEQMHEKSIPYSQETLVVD

human apelin receptor = biological target: T2, human apelin receptor (Homo sapiens, UniProt P35414); test: Radioligand displacement, [125I]-apelin-13, CHO-K1 cell membrane homogenates; type: binding
T2 sequence (P35414 1-380): T1 sequence (P35414 1-380)

NTR2 [1] = biological target: T3, NTR2 (Rattus norvegicus, UniProt Q63384); conditions: read-out: NTR2 EC50 (off-target); cited from earlier work
T3 sequence (Q63384 1-416): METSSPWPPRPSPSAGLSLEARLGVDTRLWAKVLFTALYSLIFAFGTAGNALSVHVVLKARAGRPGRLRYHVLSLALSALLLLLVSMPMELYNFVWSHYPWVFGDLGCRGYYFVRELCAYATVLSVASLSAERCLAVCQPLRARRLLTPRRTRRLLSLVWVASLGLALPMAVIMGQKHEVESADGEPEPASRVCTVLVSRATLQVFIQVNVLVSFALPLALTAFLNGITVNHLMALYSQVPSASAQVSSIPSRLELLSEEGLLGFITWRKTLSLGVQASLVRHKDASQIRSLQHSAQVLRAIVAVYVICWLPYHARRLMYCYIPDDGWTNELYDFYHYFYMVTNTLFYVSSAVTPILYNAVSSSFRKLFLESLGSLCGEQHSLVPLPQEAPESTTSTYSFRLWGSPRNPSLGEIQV

NTR2 receptor = conditions: read-out: NTR2 Ki (off-target); cited from earlier work
NTR2 [2] = biological target: T3, NTR2; test: Calcium mobilization assay for NTR2; type: cell-based
NTR1 = NTR1 (Rattus norvegicus, UniProt P20789); test: Calcium mobilization assay for NTR1; type: cell-based
NTR1, sequence (P20789 whole entry): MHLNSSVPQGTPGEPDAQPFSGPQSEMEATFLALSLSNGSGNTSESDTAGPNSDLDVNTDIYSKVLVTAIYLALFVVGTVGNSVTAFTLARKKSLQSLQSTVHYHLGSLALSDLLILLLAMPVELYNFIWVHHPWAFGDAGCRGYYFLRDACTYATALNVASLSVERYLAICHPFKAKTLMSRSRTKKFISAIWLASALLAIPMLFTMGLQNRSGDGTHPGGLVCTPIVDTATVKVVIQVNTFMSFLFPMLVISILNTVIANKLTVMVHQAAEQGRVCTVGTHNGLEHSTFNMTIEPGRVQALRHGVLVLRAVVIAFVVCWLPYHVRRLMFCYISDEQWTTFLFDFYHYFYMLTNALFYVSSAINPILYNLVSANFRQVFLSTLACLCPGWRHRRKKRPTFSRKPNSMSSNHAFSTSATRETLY

APJ agonist activity (human APJ; calcium mobilization)	Compound	further results
loss of potency	COc1cccc(O)c1-c1cc(C(=O)N[C@H](C(=O)O)C2CCCCC2)nn1-c1ccc(F)cc1 [Compound 13, 2-Cyclohexyl-2-(1-(4-fluorophenyl)-5-(2-hydroxy-6-methoxyphenyl)-1H-pyrazole-3-carboxamido)acetic acid]	–
significantly reduce activity	COc1cccc(OC)c1-c1cc(C(=O)N[C@H](C(=O)O)C2CCCCC2)n(-c2ccc(F)cc2)n1 [Compound 1a, (S)-2-Cyclohexyl-2-(3-(2,6-dimethoxyphenyl)-1-(4-fluorophenyl)-1H-pyrazole-5-carboxamido)acetic acid]	–
significantly reduce activity	COc1cccc(OC)c1-c1cc(C(=O)N[C@@H](C(=O)O)C2CCCCC2)nn1-c1ccc(F)cc1 [Compound 3, (R)-2-Cyclohexyl-2-(5-(2,6-dimethoxyphenyl)-1-(4-fluorophenyl)-1H-pyrazole-3-carboxamido)acetic acid]	–
inactive	COC(=O)CNC(=O)[C@@H](NC(=O)c1cc(-c2c(OC)cccc2OC)n(-c2ccc(F)cc2)n1)C1CCCCC1 [Compound 10, (S)-Methyl 2-(2-cyclohexyl-2-(5-(2,6-dimethoxyphenyl)-1-(4-fluorophenyl)-1H-pyrazole-3-carboxamido)acetamido)acetate]	–
inactive	COc1cccc(OC)c1-c1cc(C(=O)N[C@H](C(=O)NCC(=O)O)C2CCCCC2)nn1-c1ccc(F)cc1 [Compound 11, (S)-2-(2-Cyclohexyl-2-(5-(2,6-dimethoxyphenyl)-1-(4-fluorophenyl)-1H-pyrazole-3-carboxamido)acetamido)acetic acid]	–
devoid of activity	COc1cccc(OC)c1-c1cc(C(=O)N[C@H](C(N)=O)C2CCCCC2)nn1-c1ccc(F)cc1 [Compound 6, (S)-N-(2-Amino-1-cyclohexyl-2-oxoethyl)-5-(2,6-dimethoxyphenyl)-1-(4-fluorophenyl)-1H-pyrazole-3-carboxamide]	–
devoid of activity	COc1cccc(OC)c1-c1cc(C(=O)N[C@H](C(=O)N(C)C)C2CCCCC2)nn1-c1ccc(F)cc1 [Compound 7, (S)-N-(1-Cyclohexyl-2-(dimethylamino)-2-oxoethyl)-5-(2,6-dimethoxyphenyl)-1-(4-fluorophenyl)-1H-pyrazole-3-carboxamide]	–
did not possess activity	COC(=O)[C@@H](NC(=O)c1cc(-c2c(OC)cccc2OC)n(-c2ccc(F)cc2)n1)C1CCCCC1 [Compound 4, (S)-Methyl 2-cyclohexyl-2-(5-(2,6-dimethoxyphenyl)-1-(4-fluorophenyl)-1H-pyrazole-3-carboxamido)acetate]	–

Further lines, the compound ahead of its results:

Compound	APJ agonist activity (human APJ; calcium mobilization)	further results
COc1cccc(OC)c1-c1cc(C(=O)N[C@@H](CC(C)C)C(=O)O)nn1-c1ccc(F)cc1 [Compound 19, (S)-2-(5-(2,6-Dimethoxyphenyl)-1-(4-fluorophenyl)-1H-pyrazole-3-carboxamido)-4-methylpentanoic acid]	did not retain APJ potency	–
COc1cccc(OC)c1-c1cc(C(=O)N[C@H](C(=O)NO)C2CCCCC2)nn1-c1ccc(F)cc1 [Compound 9, (S)-N-(1-Cyclohexyl-2-(hydroxyamino)-2-oxoethyl)-5-(2,6-dimethoxyphenyl)-1-(4-fluorophenyl)-1H-pyrazole-3-carboxamide]	not tolerated	–
COc1cccc(OC)c1-c1cc(C(=O)N[C@@H](CCCCN)C(=O)O)nn1-c1ccc(F)cc1 [Compound 18, (S)-6-Amino-2-(5-(2,6-dimethoxyphenyl)-1-(4-fluorophenyl)-1H-pyrazole-3-carboxamido)hexanoic acid trifluoroacetate]	not tolerated	–
COc1cccc(OC)c1-c1cc(C(=O)NCC2CCCCC2)nn1-c1ccc(F)cc1 [Compound 5, N-(Cyclohexylmethyl)-5-(2,6-dimethoxyphenyl)-1-(4-fluorophenyl)-1H-pyrazole-3-carboxamide]	did not possess activity	–
COc1cccc(OC)c1-c1cc(C(=O)N[C@H](C(=O)NCc2ccccc2)C2CCCCC2)nn1-c1ccc(F)cc1 [Compound 8, (S)-N-(2-(Benzylamino)-1-cyclohexyl-2-oxoethyl)-5-(2,6-dimethoxyphenyl)-1-(4-fluorophenyl)-1H-pyrazole-3-carboxamide]	devoid of activity	–
COc1cccc(OC)c1-c1cc(C(=O)N[C@@H](CCCCNC(=O)OC(C)(C)C)C(=O)O)nn1-c1ccc(F)cc1 [Compound 17, (S)-6-((Tert-butoxycarbonyl)amino)-2-(5-(2,6-dimethoxyphenyl)-1-(4-fluorophenyl)-1H-pyrazole-3-carboxamido)hexanoic acid]	not tolerated	–
COc1cccc(OC)c1-c1cc(C(=O)N[C@H](C(=O)O)C2CCCCC2)nn1-c1ccc(F)cc1 [Compound 1]	–	EC50 (human APJ; read-out: functional EC50 at APJ, calcium mobilization): 21500 ± 5000 nM; displacement of 125I radiolabeled pyr-apelin-13 (human apelin receptor): 100%; mode of binding at APJ (human apelin receptor; radioligand displacement studies): competitive orthosteric ligand of APJ; EC50 (NTR2 [1]): 271 nM; Ki (NTR2 receptor): 622 nM
Cc1cc(C(=O)N[C@H](C(=O)O)C2CCCCC2)nn1-c1ccc(F)cc1 [Compound 15, (S)-2-Cyclohexyl-2-(1-(4-fluorophenyl)-5-methyl-1H-pyrazole-3-carboxamido)acetic acid]	inactive	–
CCCCC(=O)N(Cc1ccc(-c2ccccc2-c2nnn[nH]2)cc1)[C@H](C(=O)O)C(C)C [valsartan, reference compound]	none of these analogs possessed agonist activity	–
CCCCc1nc(Cl)c(CO)n1Cc1ccc(-c2ccccc2-c2nn[nH]n2)cc1 [losartan, reference compound]	none of these analogs possessed agonist activity	–
COc1cccc(OC)c1-c1cc(C(=O)N[C@@H](CC(=O)O)C2CCCCC2)nn1-c1ccc(F)cc1 [Compound 21, (S)-3-Cyclohexyl-3-(5-(2,6-dimethoxyphenyl)-1-(4-fluorophenyl)-1H-pyrazole-3-carboxamido)propanoic acid]	–	EC50 (human APJ): 9900 ± 2600 nM; Ki (human apelin receptor): 1400 ± 200 nM; EC50 (NTR2 [2]): ~345 nM; NTR2 functional behaviour (NTR2 [2]): partial agonists at NTR2; Emax (NTR2 [2]; read-out: NTR2 Emax): 57%; NTR1 activity as agonist or antagonist (NTR1): Neither compound had any significant NTR1 activity
COc1cccc(OC)c1-c1cc(C(=O)N[C@@H](CCC2CCCCC2)CC(=O)O)nn1-c1ccc(F)cc1 [Compound 22, (S)-5-Cyclohexyl-3-(5-(2,6-dimethoxyphenyl)-1-(4-fluorophenyl)-1H-pyrazole-3-carboxamido)pentanoic acid]	full agonist	NTR2 functional behaviour (NTR2 [2]): partial agonists at NTR2; NTR1 activity as agonist or antagonist (NTR1): Neither compound had any significant NTR1 activity
O=C(N[C@H](C(=O)O)C1CCCCC1)c1cc(-c2c(O)cccc2O)n(-c2ccc(F)cc2)n1 [Compound 12, (S)-2-Cyclohexyl-2-(5-(2,6-dihydroxyphenyl)-1-(4-fluorophenyl)-1H-pyrazole-3-carboxamido)acetic acid]	complete loss of agonist potency	–
COc1cccc(OC)c1-c1cc(C(=O)N[C@@H](CCC(N)=O)C(=O)O)nn1-c1ccc(F)cc1 [Compound 16, (S)-5-Amino-2-(5-(2,6-dimethoxyphenyl)-1-(4-fluorophenyl)-1H-pyrazole-3-carboxamido)-5-oxopentanoic acid]	not tolerated	–
